Reference: patent publication US12351819B2, “Method for removing undifferentiated pluripotent stem cells” (priority 2017, dated 2025)

How the values were obtained:
[1] = tested on: hiPSCs; conditions: for cytotoxicity (LDH release) in hiPSCs: 2.5 μM, 24 hours; for LDH assay positive, hiPSCs: Table 1
Method: The supernatants of cells treated with digoxin […], lanatoside C 2.5 μm, or DMSO solvent control for 24 hours were harvested. The released LDH was measured using CytoTox 96 […] assay according to the manufacture's instruction (Promega, Southampton, UK). The supernatants and reagents were incubated at room temperature for 20 minutes and then the reaction was stopped by Stop Solution. The absorbance at 490 nm was measured using a plate-reading spectrophotometer (Benchmark Plus Microplate Spectrophotometer System, BIO-RAD, CA, USA).
hiPSC-derived endothelial cells were prepared according in a previous report^34. The hiPSCs were maintained in mTeSR 1 medium ([…] Technologies, Vancouver, Canada) on VTN-N coated plates (Thermo, Wilmington, DE, USA). First, for the stepwise induction of differentiation, we performed a mesoderm induction of hiPSCs seeded in mesoderm induction medium for 48 hours (basal medium with […], […], and 2 ng/ml of Activin A; basal medium was composed of 12 g/L of DMEM/F-12, 3.56 g/L of HEPES, 1.742 g/L of sodium bicarbonate, 14 μg/L of sodium selenite, 10.7 mg/L of recombinant transferrin, 19.4 mg/L of recombinant insulin, and 64 mg/L of L-Ascorbic acid 2-phosphate sesquimagnesium salt hydrate). Second, for the mesoderm to endothelium transition, mesoderm cells were reseeded in vasculogenic medium (basal medium with 2 mg/ml of PVA plus 20 ng/ml of hVEGF-A) for an additional 72 hours. All differentiated cells were plated on VTN pre-coated culture plate dishes. The endothelial cells were analyzed on day 5 by flow cytometry staining with the CD31 (PECAM1, ThermoFisher Scientific, Wilmington, DE, USA) and CD144 (CDH5, ThermoFisher Scientific) antibodies.

[2] = tested on: hESC-hepatocyte endoderm cells; experiment: LDH cytotoxicity assay in hESC-derived hepatocyte endoderm; format: cell-based, human; conditions: Table 1
Method: This protocol followed a method previously published in Nature Protocols^36. The hESCs were detached by 0.5 mM EDTA (Life Technologies, Camarillo, C, USA), seeded on VTN-N coated culture plates (Corning) and maintained for 48 hours in mTeSR 1 medium. Then, the medium was refreshed daily for all following steps. On days 1-2, the medium was replaced with fresh CDM-PVA (consisting of 0.5 g of PVA (Sigma) dissolved in 250 ml of IMDM/F-12, GlutaMAX (Invitrogen), 250 ml of IMDM (Invitrogen), 5 ml of chemically defined lipid concentrate (Invitrogen), 20 of thioglycerol 97% (Sigma), 350 of insulin (10 mg/ml; Roche), 250 of transferrin (30 mg/ml; Roche) plus Activin A (100 ng/ml; R&D), bFGF (80 ng/ml; R&D), BMP4 (10 ng/ml; R&D), and […] of LY-294002 (Promega). On day 3, the cells were differentiated in RPMI Medium supplemented with Activin A (100 ng/ml) and bFGF (80 ng/ml). On days 4-6, the cells were expanded in RPMI medium supplemented with Activin A (50 ng/ml). On day 7, the cells were passaged and re-plated 105,000 cells/cm^2 cells in VTN-N coated culture plates in RPMI containing Activin A (50 ng/ml) and Y-27632 2HCl (10 μM Selleck-chem, Houston, TX, USA and Munich, Germany). Then, the cells were maintained in RPMI+Activin A (50 ng/ml) on days 8-11. The cells were differentiated into the hepatocyte endoderm and analyzed following the drug treatments. The expression of alpha-fetoprotein (A0008, Dako, Santa Clara, CA, USA) was analyzed in the hepatocyte endoderm via immunofluorescence staining.

[3] = tested on: HUES6 hESCs; experiment: Cell colony and morphology under bright field, HUES6; format: cell-based, human; conditions: 2.5 μM, 12 hours and 24 hours
Excerpt: Cells became round and died. […] Data are shown as the mean SD.

[4] = tested on: hESCs; experiment: PI/Annexin V flow cytometry cell death assay, hESCs; format: cell-based, human; conditions: 24 hours; FIG. 2A: 1.25 μM digoxin, 2.5 μM lanatoside C
Method: For cell death assay, Propidium iodine/Annexin V assay was performed according to the manufacturer's instruction (Alexa Fluor® 488 Annexin V/Dead Cell Apoptosis Kit; Life Technologies). In brief, live cells were dissociated with trypsin and incubated with Annexin V antibody and PI working solution for 15 minutes. We added 400 μl 1× annexin binding buffer and analyzed the stained cells by FACSCanto™ (Becton Dickinson, Franklin Lakes, NJ, USA). For analyzing the phenotypic signature of MSCs we used a Stemflow™ hMSC analysis kit (BD Biosciences) and FACSCanto™. All flow data was analyzed by FACSDivam software (BD Biosciences) and FlowJo™ (FlowJo, LLC, Ashland, USA).

[5] = tested on: cleaved PARP, caspase-3, caspase-7 in hESCs; experiment: Western blot of apoptotic markers, hESCs; format: cell-based, human; conditions: 2.5 μM, 12 hours
Method: RIPA buffer was used to harvest cell lysates (RIPA buffer: NaCl 150 mM, Tris pH 8.0 50 mM, EDTApH 8.0 5 mM, NP-40 1.0%, SDS 0.5%, sodium deoxycholate 0.1%). Western blot analyses were performed as previously described with different types of primary antibodies^29. The primary antibody includes anti-β-actin (A5441; Sigma), anti-Oct4 (sc-9081; Santa Cruz Biotechnology, Santa Cruz, CA, USA), anti-Nanog (3580; Cell Signaling Technology, Danvers, MA, USA), apoptosis antibody kit (9915; Cell Signaling Technology), ATP1A1 (3010; Cell Signaling Technology), and ATP1A2 (16836-1-AP; Proteintech™) were used. After reaction at 4° C. overnight, the blots were incubated with goat anti-mouse- or goat anti-rabbit antibody conjugated with horseradish peroxidase (Jackson ImmunoResearch Inc). The chemiluminescent substrate (WBKLS0500; Millipore, Darmstadt, Germany) was used to detect the blots. Fujifilm LAS-4000 (FUJIFILM, Tokyo, Japan) was used to take the images.

[6] = tested on: hBMMSCs; experiment: Chondrogenic induction and Alcian blue assay; format: cell-based, human; conditions: 2.5 μM 24 hours, drug removed; Alcian blue O.D 650 nm
Method: Next, drugs were removed, and 1×10^5 cells were seeded in 96-well U-bottom culture plated. After 24 hours, we changed the complete MSCgo™ Chondrogenic medium (Biological Industries) for 21 days. The media were changed every 3-4 days. Next, the pelleted cells were fixed with 4% formaldehyde for 1 hours, washed twice with ddH2O, and stained with a 1% Alcian blue solution in 0.1N HCl for 30 min. For Alcian Blue elution, we added […] Guanidine HCL solution and incubated overnight at RT. The absorbance at 650 nm was detected.

Row | SMILES | cytotoxicity (LDH release) in hiPSCs [1] | LDH assay positive, hiPSCs [1] | LDH assay positive, hepatocyte endoderm cells [2] | cell death (bright field morphology) in HUES6 [3] | cell death (PI/Annexin V) in hESCs [4] [%] | cleaved form of PARP, caspase-3, caspase-7 in hESCs [5] | differentiation ability of hBMMSCs into chondrocytes [6]
1 | C[C@H]1O[C@@H](O[C@H]2[C@@H](O)C[C@H](O[C@H]3[C@@H](O)C[C@H](O[C@H]4CC[C@@]5(C)[C@H](CC[C@@H]6[C@@H]5C[C@@H](O)[C@]5(C)[C@@H](C7=CC(=O)OC7)CC[C@]65O)C4)O[C@@H]3C)O[C@@H]2C)C[C@H](O)[C@@H]1O [Digoxin, digoxin] | induced cytotoxicity | +++ (more than 70% positive cells) | −/+ (10% positive cells) | induced cell death | 70 | increases in the cleaved form | neither digoxin nor lanatoside C affected the differentiation ability
2 | CC(=O)O[C@H]1C[C@H](O[C@H]2[C@@H](O)C[C@H](O[C@H]3[C@@H](O)C[C@H](O[C@H]4CC[C@@]5(C)[C@H](CC[C@@H]6[C@@H]5C[C@@H](O)[C@]5(C)[C@@H](C7=CC(=O)OC7)CC[C@]65O)C4)O[C@@H]3C)O[C@@H]2C)O[C@H](C)[C@H]1O[C@@H]1O[C@H](CO)[C@@H](O)[C@H](O)[C@H]1O [Lanatoside C, lanatoside C] | induced cytotoxicity | +++ (more than 70% positive cells) | −/+ (10% positive cells) | induced cell death | 82 | increases in the cleaved form | neither digoxin nor lanatoside C affected the differentiation ability
